# Reference: patent US10189809B2, “SGC stimulators” (Ironwood Pharmaceuticals, Inc., priority 2010, dated 2019)
# Like-named read-outs stand apart in the source and are kept apart here.
# Key:
# [1] = target: T1, soluble guanylate cyclase (sGC) (Homo sapiens (Human), UniProt Q02108+Q02153); assay: sGC-HEK-cGMP assay run with SNP incubation (HEK WC assay); format: cell-based; settings: for HEK WC Assay (fold increase at 30 μM in the presence of 10 μM SNP): compound at 30 μM; for EC50: in the presence of 10 uM SNP
# How it was run: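 EC50 values derive from concentration-response curves of intracellular cGMP in HEK293 cells, which express sGC endogenously. Compound and sodium nitroprusside were co-incubated 10 min at 37 °C after a 15-min 0.5 mM IBMX step, with 0.1 M HCl lysis and 1% DMSO vehicle.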
# [2] = target: T1, soluble guanylate cyclase (sGC); assay: sGC-HEK-cGMP assay run in the absence of SNP (HEK WC assay); format: cell-based; settings: compound at 30 μM, absence of SNP
# Procedure: Human embryonic kidney cells (HEK293), endogenously expressing soluble guanylate cyclase (sGC), were used to evaluate the activity of test compounds. Compounds stimulating the sGC receptor should cause an increase in the intracellular concentration of cGMP. HEK 293 cells were seeded in Dulbecco's Modification of Eagle's Medium supplemented with fetal bovine serum (10% final) and L-glutamine (2 mM final) in a 200 μL volume at a density of 1×10^5 cells/well in a poly-D-lysine coated 96 well flat bottom plate and grown overnight at 37° C. Medium was aspirated and cells were washed with 1× Hank's Buffered Saline Salt Solution (200 μL). Cells were then incubated for 15 minutes at 37° C. with 0.5 mM 3-isobutyl-1-methylxanthine (200 μL). Test article was then added to the assay mixture (2 μL) and incubated at 37° C. for 10 minutes. After the 10 minute incubation, the assay mixture was aspirated and 0.1M HCl (200 μL) was added to the cells. The plate was incubated at 4° C. for 30 minutes in the 0.1M HCl to stop the reaction and lysed the cells. The plates were then centrifuged at 1,200 g for 5 minutes at room temperature. Supernatants were collected and transferred to a new flat bottom 96 well plate for analysis. Vehicle controls were carried out using DMSO (1%). A known sGC stimulator, BAY 41-2272, was used as the positive control. Samples were diluted with an equal volume of 1 M Ammonium Acetate (pH 7) to neutralize samples for better chromatography. A 2× cGMP standard curve was prepared in 0.1 M HCl and then diluted with an equal volume of 1 M Ammonium Acetate, with the following final concentrations in nM: 1024, 512, 256, 128, 64, 32, 16, 8, 4, 2, 1. cGMP concentrations were determined from each sample using the LC/MS conditions (Table 2 below) and calculated standard curve. EC50 values were calculated from concentration-response curves generated with GraphPad Prism Software.
# [3] = read-out: HEK WC Assay (% Emax at 1 μM with 10 uM SNP)
# [4] = read-out: HEK WC Assay (% Emax at 10 μM with 10 uM SNP)
# [5] = read-out: HEK WC Assay (% Emax at 30 μM with 10 uM SNP)
# T1 sequence (Q02153 whole entry): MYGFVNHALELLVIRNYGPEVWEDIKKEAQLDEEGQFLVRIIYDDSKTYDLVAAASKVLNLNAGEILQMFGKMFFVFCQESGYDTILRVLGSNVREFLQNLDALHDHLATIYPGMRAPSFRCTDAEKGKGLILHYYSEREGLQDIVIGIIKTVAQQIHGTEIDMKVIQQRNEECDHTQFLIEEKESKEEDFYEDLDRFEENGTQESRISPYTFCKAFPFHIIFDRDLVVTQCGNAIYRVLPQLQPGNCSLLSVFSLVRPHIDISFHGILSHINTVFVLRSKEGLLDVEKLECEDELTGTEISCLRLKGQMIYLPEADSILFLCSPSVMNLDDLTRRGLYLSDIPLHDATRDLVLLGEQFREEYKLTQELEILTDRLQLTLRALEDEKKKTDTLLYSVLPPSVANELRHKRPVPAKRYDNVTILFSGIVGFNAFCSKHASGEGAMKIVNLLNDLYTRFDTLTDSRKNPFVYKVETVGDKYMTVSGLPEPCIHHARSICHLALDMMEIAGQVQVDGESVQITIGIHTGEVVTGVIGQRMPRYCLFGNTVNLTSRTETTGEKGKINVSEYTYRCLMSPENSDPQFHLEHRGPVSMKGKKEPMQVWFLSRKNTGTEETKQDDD
# T1 sequence (Q02108 whole entry): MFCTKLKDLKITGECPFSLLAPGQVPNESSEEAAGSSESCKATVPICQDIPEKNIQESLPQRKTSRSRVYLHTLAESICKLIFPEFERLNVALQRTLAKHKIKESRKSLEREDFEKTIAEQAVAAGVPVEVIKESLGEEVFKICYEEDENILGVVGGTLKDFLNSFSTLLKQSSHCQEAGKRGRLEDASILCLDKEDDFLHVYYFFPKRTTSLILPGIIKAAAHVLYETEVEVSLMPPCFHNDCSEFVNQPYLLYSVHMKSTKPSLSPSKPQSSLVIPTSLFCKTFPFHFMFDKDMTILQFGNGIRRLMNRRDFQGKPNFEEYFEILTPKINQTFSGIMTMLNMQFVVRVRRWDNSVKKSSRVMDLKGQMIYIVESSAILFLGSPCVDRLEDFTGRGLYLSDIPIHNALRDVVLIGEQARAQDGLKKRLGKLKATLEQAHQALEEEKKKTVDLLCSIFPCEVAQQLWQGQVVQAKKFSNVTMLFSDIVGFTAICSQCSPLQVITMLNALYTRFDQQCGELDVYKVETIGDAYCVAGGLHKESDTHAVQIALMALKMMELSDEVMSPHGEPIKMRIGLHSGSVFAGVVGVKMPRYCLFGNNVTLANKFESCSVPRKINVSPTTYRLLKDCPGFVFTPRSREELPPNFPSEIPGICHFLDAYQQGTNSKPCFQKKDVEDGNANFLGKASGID
HEK WC Assay (fold increase at 30 μM in the presence of 10 μM SNP) [1],EC50 [1] [µM],"Emax [1, 3] [%]","Emax [1, 4] [%]","Emax [1, 5] [%]",HEK WC Assay (fold increase at 30 μM in the absence of SNP) [2],SMILES
D (D = 5 to <10 fold increase),60 to 100,0 to 10,10 to 20,20 to 40,C (C = 2 to <5 fold increase),OCCc1cnc(-c2cc(-c3ccon3)n(Cc3ccccc3F)n2)nc1O [Compound I-210]
E (E = 10 to <20 fold increase),20 to 40,20 to 40,20 to 40,40 to 60,D (D = 5 to <10 fold increase),Nc1nc(-c2cc(-c3ccon3)n(Cc3ccccc3F)n2)ncc1NC(=O)c1ccccc1OC(F)(F)F [Compound I-211]
E (E = 10 to <20 fold increase),< 20,60 to 80,60 to 80,60 to 80,D (D = 5 to <10 fold increase),Nc1nc(-c2cc(-c3ccon3)n(Cc3ccccc3F)n2)ncc1NC(=O)CN1C(=O)c2ccccc2C1=O [Compound I-212]
E (E = 10 to <20 fold increase),60 to 100,0 to 10,10 to 20,20 to 40,D (D = 5 to <10 fold increase),NCC(=O)Nc1cnc(-c2cc(-c3ccon3)n(Cc3ccccc3F)n2)nc1N [Compound I-213]
F (F = 20 to <30 fold increase),< 20,80 to 100,80 to 100,80 to 100,E (E = 10 to <20 fold increase),Nc1nc(-c2cc(-c3ccon3)n(Cc3ccccc3F)n2)ncc1NC(=O)c1cccc(C(F)(F)F)c1 [Compound I-215]
E (E = 10 to <20 fold increase),20 to 40,40 to 60,40 to 60,20 to 40,D (D = 5 to <10 fold increase),Nc1nc(-c2cc(-c3ccon3)n(Cc3ccccc3F)n2)ncc1NC(=O)C1(c2ccccc2)CCC1 [Compound I-218]
E (E = 10 to <20 fold increase),< 20,20 to 40,60 to 80,60 to 80,D (D = 5 to <10 fold increase),Nc1nc(-c2cc(-c3ccon3)n(Cc3ccccc3F)n2)ncc1NC(=O)[C@@H]1CCCN1C(=O)C(F)(F)F [Compound I-219]
C (C = 2 to <5 fold increase),–,0 to 10,0 to 10,10 to 20,B (B = 1 to <2 fold increase),c1cnc(-c2cc(-c3ccon3)n(Cc3cnccn3)n2)nc1 [Compound I-221]
E (E = 10 to <20 fold increase),100 to 300,0 to 10,10 to 20,10 to 20,C (C = 2 to <5 fold increase),Nc1nc(-c2cc(-c3ccon3)n(Cc3ccccc3F)n2)ncc1NCc1ccccc1 [Compound I-223]
E (E = 10 to <20 fold increase),< 20,20 to 40,40 to 60,40 to 60,C (C = 2 to <5 fold increase),O=S(=O)(c1cnc(-c2cc(-c3ccon3)n(Cc3ccccc3F)n2)nc1O)N1CCOCC1 [Compound I-224]
E (E = 10 to <20 fold increase),60 to 100,0 to 10,20 to 40,20 to 40,C (C = 2 to <5 fold increase),Nc1nc(-c2cc(-c3ccon3)n(Cc3ccccc3F)n2)ncc1NC(=O)[C@@H]1CCCN1 [Compound I-225]
F (F = 20 to <30 fold increase),< 20,40 to 60,80 to 100,60 to 80,E (E = 10 to <20 fold increase),CC(F)(F)C(=O)Nc1cnc(-c2cc(-c3ccon3)n(Cc3ccccc3F)n2)nc1N [Compound I-226]
F (F = 20 to <30 fold increase),< 20,40 to 60,60 to 80,60 to 80,F (F = 20 to <30 fold increase),C/C=C(\C)C(=O)Nc1cnc(-c2cc(-c3ccon3)n(Cc3ccccc3F)n2)nc1N [Compound I-227]
E (E = 10 to <20 fold increase),20 to 40,10 to 20,40 to 60,40 to 60,C (C = 2 to <5 fold increase),CN(C(=O)c1ccccc1)c1cnc(-c2cc(-c3ccon3)n(Cc3ccccc3F)n2)nc1N [Compound I-228]
E (E = 10 to <20 fold increase),20 to 40,20 to 40,40 to 60,20 to 40,C (C = 2 to <5 fold increase),CO[C@@](C(=O)Nc1cnc(-c2cc(-c3ccon3)n(Cc3ccccc3F)n2)nc1N)(c1ccccc1)C(F)(F)F [Compound I-229]
E (E = 10 to <20 fold increase),< 20,60 to 80,80 to 100,80 to 100,E (E = 10 to <20 fold increase),CC1(C(=O)Nc2cnc(-c3cc(-c4ccon4)n(Cc4ccccc4F)n3)nc2N)CCCCC1 [Compound I-231]
E (E = 10 to <20 fold increase),< 20,20 to 40,60 to 80,60 to 80,C (C = 2 to <5 fold increase),CC1(C(=O)Nc2cnc(-c3cc(-c4ccon4)n(Cc4ccccc4F)n3)nc2N)CCCO1 (centres unmarked) [Compound I-232]
F (F = 20 to <30 fold increase),< 20,80 to 100,80 to 100,80 to 100,E (E = 10 to <20 fold increase),Nc1nc(-c2cc(-c3ccon3)n(Cc3ccccc3F)n2)ncc1NC(=O)C12CC3CC(CC(C3)C1)C2 [Compound I-233]
E (E = 10 to <20 fold increase),< 20,20 to 40,40 to 60,40 to 60,C (C = 2 to <5 fold increase),CN(C(=O)C(C)(C)C)c1cnc(-c2cc(-c3ccon3)n(Cc3ccccc3F)n2)nc1N [Compound I-234]
E (E = 10 to <20 fold increase),< 20,20 to 40,60 to 80,60 to 80,C (C = 2 to <5 fold increase),CC(C)(C(=O)Nc1cnc(-c2cc(-c3ccon3)n(Cc3ccccc3F)n2)nc1N)c1ccccc1 [Compound I-236]
